Where two headings read alike, the source gives them in different places.
What was measured:
[1] = system: P. falciparum 3D7 asexual blood stages; experiment: Whole-cell time extended asexual growth assay (pLDH); type: cell-based; conditions: Plasmodium falciparum, 72 h; for IC50: dose response retest, read-out: IC50 (µM) Asex stages; for inhibition at 2 µM: primary screen, read-out: %Inh Asex stages @2uM
Procedure: Asexual activity was assayed via Plasmodium lactate dehydrogenase activity (pLDH), a surrogate of asexual parasite growth. […] 2 µM artesunate and DMSO were used as the positive and negative controls, respectively. […] After plate mixing, NBT reduction was measured by absorbance at 650 nm using Envision (Perkin Elmer).

HepG2 human cells = system: HepG2 human cells; design: method as in http://dx.doi.org/10.6019/CHEMBL3507680; conditions: ref http://dx.doi.org/10.6019/CHEMBL3507680; cited from earlier work
[2] = system: P. falciparum stage V male gametocytes (male gamete formation); experiment: P. falciparum dual gamete formation assay (Pf DGFA), male readout (exflagellation), 48 h carry-over format; type: cell-based, Plasmodium falciparum NF54; conditions: for IC50 / inhibition at 2 µM: Plasmodium falciparum; for IC50: read-out: Male IC50; for inhibition at 2 µM / %Inhibition Male @2uM: primary screen, single replicate
[3] = system: P. falciparum stage V female gametocytes (female gamete formation); experiment: P. falciparum dual gamete formation assay (Pf DGFA), female readout (Pfs25 expression), 48 h carry-over format; type: cell-based, Plasmodium falciparum NF54; conditions: for IC50 / inhibition at 2 µM: Plasmodium falciparum; for IC50: read-out: Female IC50; for inhibition at 2 µM / %Inhibition Female @2uM: primary screen, single replicate
[4] = 48 h, dose response retest of primary hits, 48 h incubation

SMILES	IC50 [1]	inhibition at 2 µM [1]	%Inh HepG2 @10uM (HepG2 human cells)	also measured
COc1cc(CNCC(O)c2ccc(F)c(F)c2)cc2c1OCO2 (stereo not drawn) [DDD00408586]	3 µM	56.7%	29.87%	–
CCCc1nc2c(c(C)c(C)n2CCN(C)C)c(N)c1CC [DDD01026700]	5.25 µM	39.3%	3.64%	–
Cc1c(-c2ccccc2)nc2c(c(C)c(C)n2CCN(C)C)c1N [DDD01026725]	4.49 µM	46.1%	13.65%	–
O=C(CN1CC(c2nc(C3CC3)no2)C1)N1CCOCC1.O=C(O)C(=O)O [DDD01027902]	–	–	-17.5%	IC50 [2, 4]: 1180 nM; inhibition at 2 µM ([2]; 48 h incubation): 52.5%; IC50 [3, 4]: 5810 nM; inhibition at 2 µM ([3]; 48 h incubation): < 30%
COc1ccc(CN2CCc3c(CNC(=O)CC#N)nn(C)c3C2)cc1.O=C(O)C(F)(F)F.O=C(O)C(F)(F)F [DDD01030619]	–	–	-1.4%	IC50 [2, 4]: 1340 nM; inhibition at 2 µM ([2]; 48 h incubation): 59.5%; IC50 [3, 4]: > 10000 nM; inhibition at 2 µM ([3]; 48 h incubation): < 30%
c1cncc(-c2ccc3c(c2)CCC32CCNCC2)c1 [DDD01031368]	3.86 µM	38.8%	17.78%	–
COc1cccc(C2SCC(=O)Nc3ccsc32)c1OC (stereo not drawn) [DDD01034924]	5.19 µM	33.1%	1.70%	–
Cc1[nH]/c(=N\C(=O)c2csc(NC3CCCC3)n2)sc1C [DDD01035522]	5.98 µM	32.6%	31.16%	–
CC(C)c1nnc2ccc(N3CCC(C(=O)Nc4nccs4)CC3)nn12 [DDD01036018]	9.35 µM	30.4%	10.73%	–
COCCCNC(=O)c1cc(C(C)C)nc(N2CCCCCC2)n1 [DDD01038653]	6.14 µM	40.6%	-8.22%	–
CC(C)Nc1cc(-c2c[nH]nc2C2CCN(C(=O)C3CC3)C2)ccn1 (stereo not drawn) [DDD01057305]	5.06 µM	30.6%	96.71%	–
COCC(=O)N1CCCC(c2nc(N(C)C)ncc2-c2ccccc2)C1 (stereo not drawn) [DDD01057962]	5.84 µM	42.5%	4.41%	–
COc1ccc(CNC(Cc2ccsc2)c2ccc(C)cn2)c(OC)c1 (stereo not drawn) [DDD01058868]	–	–	85.33%	IC50 [2, 4]: > 10000 nM; inhibition at 2 µM ([2]; 48 h incubation): < 30%; IC50 [3, 4]: 5300 nM; inhibition at 2 µM ([3]; 48 h incubation): 30.8%
Cc1cccnc1CN1CC[C@H](Oc2cccc(F)c2)[C@@](C)(O)C1 [DDD01060871]	–	–	-0.828%	IC50 [2, 4]: > 10000 nM; inhibition at 2 µM ([2]; 48 h incubation): < 30%; IC50 [3, 4]: 6070 nM; inhibition at 2 µM ([3]; 48 h incubation): 32.8%
CC(NCC1CCN(CCO)CC1)c1ccc(C(F)(F)F)cc1 (stereo not drawn) [DDD01073719]	–	–	14.02%	IC50 [2, 4]: 7830 nM; inhibition at 2 µM ([2]; 48 h incubation): 34.8%; IC50 [3, 4]: > 10000 nM; inhibition at 2 µM ([3]; 48 h incubation): < 30%
O=C(C1CC2(CCNCC2)CN1)N1CCN(c2cccc(Cl)c2Cl)CC1 (stereo not drawn) [DDD01243908]	–	–	-1.58%	IC50 [2, 4]: 4280 nM; inhibition at 2 µM ([2]; 48 h incubation): 65.7%; IC50 [3, 4]: 4790 nM; inhibition at 2 µM ([3]; 48 h incubation): < 30%
Cc1nc(C)n(CC2CCCN(CCOc3cccc(C#N)c3)C2)n1 (stereo not drawn) [DDD01302568]	–	–	–	%Inhibition Male @2uM ([2]; 48 h incubation): 85.34%; %Inhibition Female @2uM ([3]; 48 h incubation): <30%
CCC(NC(=O)c1ccco1)c1ccccc1OCC(=O)N1CCCC1 (stereo not drawn) [DDD01302666]	–	–	–	%Inhibition Male @2uM ([2]; 48 h incubation): 33.09%; %Inhibition Female @2uM ([3]; 48 h incubation): <30%
CC(C)CCN(C)C(=O)c1nc(S(C)(=O)=O)n2ccccc12 [DDD01302801]	–	–	–	%Inhibition Male @2uM ([2]; 48 h incubation): 31.11%; %Inhibition Female @2uM ([3]; 48 h incubation): <30%
COc1ccc(NC(=O)c2ccc(-n3ncc(C#N)c3N)cc2)cn1 [DDD01303472]	–	–	3.50%	–
O=C(NCC1(O)CCOc2ccccc21)c1ccc(Br)s1 (stereo not drawn) [OJF-034]	–	–	–	IC50 ([2]; SAR, Fig. 6 and Fig. 7): > 25000 nM; IC50 ([3]; SAR, Fig. 7): > 25000 nM

Further lines, with some results ahead:

IC50 [1]	SMILES	inhibition at 2 µM [1]	%Inh HepG2 @10uM (HepG2 human cells)	also measured
3.31 µM	CCc1c(-c2ccccc2)nc2c(c(C)c(C)n2CCN(C)C)c1N [DDD01026714]	48.1%	15.22%	–
2.18 µM	CC(C)n1ncc2c1NC(=O)CC21C(=O)Nc2c(Cl)ccc(Cl)c21 (stereo not drawn) [DDD01027128]	96.3%	-12.20%	–
3.54 µM	CC(C)Nc1nc2c(c(NC3CC3)n1)CCN(C1CCOCC1)CC2 [DDD01029612]	33.7%	-3.76%	–
2.5 µM	CC(C)Nc1nc2c(c(NC3CC3)n1)CN(C(=O)Cc1ccsc1)CC2 [DDD01029980]	33.2%	3.26%	–
1.15 µM	CC(C)Nc1nc2c(c(NC3CC3)n1)CN(C(=O)c1ccsc1)CC2 [DDD01030030]	58.7%	-17.20%	–
2.17 µM	Cc1nnc(N2CC[C@@H](OCC3CC3)[C@@H](Cc3ccccc3)C2)s1.O=C(O)C(F)(F)F [DDD01032950]	45.4%	-7.86%	–
2.59 µM	CN(Cc1ccco1)C[C@H]1OC[C@@H]2CCN(Cc3ccccn3)C[C@@H]21.O=C(O)C(F)(F)F.O=C(O)C(F)(F)F.O=C(O)C(F)(F)F [DDD01033585]	41%	-8.48%	–
1.48 µM	COc1ccc(N2CCCC3(C2)CN(c2nncs2)CCO3)cc1 (stereo not drawn) [DDD01034473]	87.8%	1.09%	–
3.12 µM	I.c1ccc(Sc2ccc3c(c2)OCO3)c(CNC2=NCCN2)c1 [DDD01035544]	30.4%	-0.79%	–
3.65 µM	O=C(Nc1cnn(COc2ccc(F)cc2Cl)c1)C1CC1 [DDD01037427]	46.4%	9.89%	–
1.88 µM	CCN(CC)c1nc(Nc2cccc(C(C)O)c2)nc2ccccc12 (stereo not drawn) [DDD01037966]	44.9%	65.01%	–
1.67 µM	CC(O)c1cccc(Nc2nc(NCCO)c3ccccc3n2)c1 (stereo not drawn) [DDD01037968]	41.9%	-5.65%	–
2.29 µM	Oc1ccc(Cl)cc1CNCc1ccccc1Cl [DDD01038243]	49.1%	-8.63%	–
1.69 µM	Oc1ccc(Cl)cc1CNCc1cccc(C(F)(F)F)c1 [DDD01038245]	52.7%	-12.90%	–
1.52 µM	Cc1ccccc1CNCc1cc(Cl)ccc1O [DDD01038246]	53.9%	-11.50%	–
3.16 µM	COc1cccc(CNCc2cccc(Cl)c2)c1O [DDD01038248]	33.1%	-4.96%	–

IC50 [1]	SMILES	inhibition at 2 µM [1]	%Inh HepG2 @10uM (HepG2 human cells)	also measured
1.59 µM	COc1cccc(CNCc2ccc(F)c(Cl)c2)c1O [DDD01038250]	68.7%	27.04%	–
3.8 µM	Cc1nn(C)c(C)c1CCn1cncc1-c1ccc2c(c1)CC(C)N2C.Cl (stereo not drawn) [DDD01056530]	51%	4.43%	–
1.46 µM	Cc1cccc(C)c1Nc1noc2c1CN(C(=O)c1ccnn1C)CC2 [DDD01056796]	68.6%	69.80%	–
1.55 µM	Cc1cccc(C)c1Nc1noc2c1CN(C(=O)c1cn(C)cn1)CC2 [DDD01056797]	81.2%	75.15%	–
2 µM	Cc1cccc(C)c1Nc1noc2c1CN(C(=O)c1ccn(C)n1)CC2 [DDD01057030]	47.3%	46.43%	–
1.85 µM	CCCNc1cc(-c2c[nH]nc2C2CCN(C(=O)C3CCC3)C2)ccn1 (stereo not drawn) [DDD01057089]	43.4%	96.64%	–
1.37 µM	Cl.NC1CCc2nc(-c3cccnc3)nc(Nc3ccc(F)cc3)c2C1 (stereo not drawn) [DDD01057099]	68.5%	3.41%	–
3.78 µM	CC(C)CNc1cc(-c2c[nH]nc2C2CCN(C(=O)C3CC3)C2)ccn1 (stereo not drawn) [DDD01057306]	35.1%	95.13%	–
2.39 µM	CC(C)Nc1cc(-c2c[nH]nc2C2CCN(C(=O)C3CCC3)C2)ccn1 (stereo not drawn) [DDD01057307]	36.2%	95.83%	–
1.67 µM	CCOc1ccc(CN2CCCC(c3cc4ncccc4[nH]3)C2)cc1 (stereo not drawn) [DDD01057418]	91.8%	6.95%	–
0.456 µM	Cc1nn(C)cc1C1=NS(=O)(=O)N(C)C(C(=O)Nc2ccc(Cl)cc2)=C1 [DDD01058696]	97.9%	1.32%	–
0.366 µM	Cc1nn(C)cc1C1=NS(=O)(=O)N(C)C(C(=O)Nc2ccc(Br)cc2)=C1 [DDD01058697]	98%	0.0552%	–
1.79 µM	Cl.Fc1ccc(F)c(CN2CCC(c3cc4ncccc4cn3)CC2)c1 [DDD01058752]	62.6%	4.59%	–
1.64 µM	Cl.Fc1cccc(CN2CCC(c3cc4ncccc4cn3)CC2)c1F [DDD01058754]	33.2%	4.71%	–
0.853 µM	COc1ccc(C)cc1CN1CCC(c2cc3ncccc3cn2)CC1.Cl [DDD01058767]	97.7%	105.03%	–

— publication PMC6143625, “A high throughput screen for next-generation leads targeting malaria parasite transmission” (Nature Communications, 2018)
